Measured values from PMC8213057, “Targeting ALK2: An Open Science Approach to Developing Therapeutics for the Treatment of Diffuse Intrinsic Pontine Glioma” (Journal of Medicinal Chemistry, 2020).

Key:
[1] = tested on: Caco-2 cells; assay: Caco-2 permeability assay; conditions: 5 μM; for Papp_AB: Caco-2, apical to basolateral; for Papp_BA: Caco-2, basolateral to apical
[2] = biological target: CDK18/cyclin Y (PCTK3) (Homo sapiens, UniProt Q07002); assay: biochemical; conditions: read-out: % enzyme activity, 1 μM; Run 1, Run 2
[3] = biological target: T1, PKCnu/PRKD3 (Homo sapiens, UniProt O94806); assay: biochemical; conditions: read-out: % enzyme activity, 1 μM; Run 1, Run 2
T1 sequence (O94806 1-890): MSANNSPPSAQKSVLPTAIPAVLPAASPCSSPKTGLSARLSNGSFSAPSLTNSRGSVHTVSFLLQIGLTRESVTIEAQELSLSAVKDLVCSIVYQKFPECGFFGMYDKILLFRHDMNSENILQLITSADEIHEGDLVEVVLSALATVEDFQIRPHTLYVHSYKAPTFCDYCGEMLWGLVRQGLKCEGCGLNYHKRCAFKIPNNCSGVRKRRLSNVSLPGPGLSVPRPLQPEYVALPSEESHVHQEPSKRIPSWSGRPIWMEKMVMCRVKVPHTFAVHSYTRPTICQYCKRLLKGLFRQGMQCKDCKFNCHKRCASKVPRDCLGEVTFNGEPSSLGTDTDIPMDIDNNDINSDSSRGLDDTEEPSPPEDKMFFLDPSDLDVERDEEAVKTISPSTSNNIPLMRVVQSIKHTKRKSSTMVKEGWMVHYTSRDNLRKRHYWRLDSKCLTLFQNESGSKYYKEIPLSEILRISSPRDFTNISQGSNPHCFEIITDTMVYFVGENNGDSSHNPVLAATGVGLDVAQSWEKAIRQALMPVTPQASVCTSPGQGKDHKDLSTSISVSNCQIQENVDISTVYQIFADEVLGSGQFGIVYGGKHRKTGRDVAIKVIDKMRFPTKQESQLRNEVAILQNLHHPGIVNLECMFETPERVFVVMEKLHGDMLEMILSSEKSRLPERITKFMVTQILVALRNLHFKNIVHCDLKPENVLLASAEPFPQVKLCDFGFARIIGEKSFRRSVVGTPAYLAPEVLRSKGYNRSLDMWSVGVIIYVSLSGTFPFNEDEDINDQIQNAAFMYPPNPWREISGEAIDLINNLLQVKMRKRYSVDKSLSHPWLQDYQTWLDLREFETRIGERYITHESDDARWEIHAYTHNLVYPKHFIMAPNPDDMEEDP

[4] = biological target: OSR1/OXSR1 (Homo sapiens, UniProt O95747); conditions: 1 μM; Run 1, Run 2
[5] = biological target: T2, TEC (Homo sapiens, UniProt P42680); assay: biochemical; conditions: read-out: % enzyme activity, 1 μM; Run 1, Run 2
T2 sequence (P42680 1-631): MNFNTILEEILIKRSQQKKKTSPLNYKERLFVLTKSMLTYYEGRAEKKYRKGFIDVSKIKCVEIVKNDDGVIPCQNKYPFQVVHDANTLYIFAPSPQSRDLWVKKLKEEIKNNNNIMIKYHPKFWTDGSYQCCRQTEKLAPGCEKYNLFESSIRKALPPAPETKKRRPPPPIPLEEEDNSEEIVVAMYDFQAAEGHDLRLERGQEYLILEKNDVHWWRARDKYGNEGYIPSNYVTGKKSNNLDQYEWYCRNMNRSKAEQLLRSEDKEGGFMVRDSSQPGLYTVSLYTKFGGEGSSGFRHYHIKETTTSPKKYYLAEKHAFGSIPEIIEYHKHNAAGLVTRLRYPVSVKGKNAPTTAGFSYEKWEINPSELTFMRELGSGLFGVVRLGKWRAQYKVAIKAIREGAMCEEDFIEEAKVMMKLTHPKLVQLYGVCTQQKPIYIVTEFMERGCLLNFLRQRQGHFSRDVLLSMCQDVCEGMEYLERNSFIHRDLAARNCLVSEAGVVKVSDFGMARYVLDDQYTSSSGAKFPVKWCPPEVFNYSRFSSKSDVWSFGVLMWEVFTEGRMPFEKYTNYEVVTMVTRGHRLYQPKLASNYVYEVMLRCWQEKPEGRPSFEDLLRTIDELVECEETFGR

[6] = biological target: RIPK2 (Homo sapiens, UniProt O43353); conditions: 1 μM; Run 1, Run 2
[7] = biological target: T3, GRK3 (Homo sapiens, UniProt P35626); assay: biochemical; conditions: read-out: % enzyme activity, 1 μM; Run 1, Run 2
T3 sequence (P35626 1-688): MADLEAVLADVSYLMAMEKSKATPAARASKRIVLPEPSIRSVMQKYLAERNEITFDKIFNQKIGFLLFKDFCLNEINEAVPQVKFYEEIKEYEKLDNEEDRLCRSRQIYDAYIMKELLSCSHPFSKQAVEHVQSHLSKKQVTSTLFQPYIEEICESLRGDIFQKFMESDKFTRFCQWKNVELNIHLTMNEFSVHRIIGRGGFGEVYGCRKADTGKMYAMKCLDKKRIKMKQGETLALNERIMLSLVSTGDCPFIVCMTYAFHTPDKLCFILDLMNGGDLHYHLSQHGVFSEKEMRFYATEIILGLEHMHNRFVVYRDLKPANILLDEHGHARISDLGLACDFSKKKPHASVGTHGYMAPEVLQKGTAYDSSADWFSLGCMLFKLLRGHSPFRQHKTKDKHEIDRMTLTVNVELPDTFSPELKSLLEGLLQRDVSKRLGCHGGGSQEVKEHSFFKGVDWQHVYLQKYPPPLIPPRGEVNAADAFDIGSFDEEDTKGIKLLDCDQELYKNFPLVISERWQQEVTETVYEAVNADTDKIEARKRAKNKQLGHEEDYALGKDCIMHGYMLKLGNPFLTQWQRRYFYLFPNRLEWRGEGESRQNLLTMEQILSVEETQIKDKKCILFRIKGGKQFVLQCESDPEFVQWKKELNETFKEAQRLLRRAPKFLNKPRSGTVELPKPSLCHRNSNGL

[8] = biological target: T4, MKK4 (Homo sapiens, UniProt P45985); conditions: 1 μM; Run 1, Run 2
T4 sequence (P45985 1-399): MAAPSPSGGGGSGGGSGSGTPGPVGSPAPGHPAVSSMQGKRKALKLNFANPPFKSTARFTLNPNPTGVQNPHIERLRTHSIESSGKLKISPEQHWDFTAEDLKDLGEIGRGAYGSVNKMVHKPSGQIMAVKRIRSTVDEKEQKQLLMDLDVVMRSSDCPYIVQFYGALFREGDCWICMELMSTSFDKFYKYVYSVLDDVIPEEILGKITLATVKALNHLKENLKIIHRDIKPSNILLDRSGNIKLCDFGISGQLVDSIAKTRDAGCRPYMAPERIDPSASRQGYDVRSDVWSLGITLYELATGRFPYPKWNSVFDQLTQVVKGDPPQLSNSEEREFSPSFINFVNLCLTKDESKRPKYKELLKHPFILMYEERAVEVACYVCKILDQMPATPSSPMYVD

Chain of CDK18/cyclin Y (PCTK3) (Q07002 whole entry): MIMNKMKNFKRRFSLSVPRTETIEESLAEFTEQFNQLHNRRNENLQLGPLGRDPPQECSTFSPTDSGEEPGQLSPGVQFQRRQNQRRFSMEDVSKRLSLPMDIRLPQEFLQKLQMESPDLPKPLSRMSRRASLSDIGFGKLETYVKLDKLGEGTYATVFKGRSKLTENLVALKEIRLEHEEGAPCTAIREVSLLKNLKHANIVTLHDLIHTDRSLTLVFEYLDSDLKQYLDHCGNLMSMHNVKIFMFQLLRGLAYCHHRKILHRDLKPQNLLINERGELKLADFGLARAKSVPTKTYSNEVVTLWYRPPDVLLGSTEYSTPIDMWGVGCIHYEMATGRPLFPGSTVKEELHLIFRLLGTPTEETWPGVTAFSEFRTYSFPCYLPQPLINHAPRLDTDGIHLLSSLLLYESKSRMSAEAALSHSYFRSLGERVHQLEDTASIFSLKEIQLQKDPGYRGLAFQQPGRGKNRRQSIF
Chain of CDK18/cyclin Y (PCTK3) (Q8ND76 whole entry partner): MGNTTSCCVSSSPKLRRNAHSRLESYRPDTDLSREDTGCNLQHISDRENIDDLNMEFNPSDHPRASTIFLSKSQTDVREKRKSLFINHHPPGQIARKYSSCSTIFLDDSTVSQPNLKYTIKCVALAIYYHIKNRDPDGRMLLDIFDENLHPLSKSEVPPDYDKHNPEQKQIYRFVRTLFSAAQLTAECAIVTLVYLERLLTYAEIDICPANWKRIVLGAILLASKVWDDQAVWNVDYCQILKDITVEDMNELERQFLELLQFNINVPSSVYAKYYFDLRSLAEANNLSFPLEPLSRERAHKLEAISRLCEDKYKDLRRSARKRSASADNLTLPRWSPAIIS
Chain of RIPK2 (O43353 whole entry): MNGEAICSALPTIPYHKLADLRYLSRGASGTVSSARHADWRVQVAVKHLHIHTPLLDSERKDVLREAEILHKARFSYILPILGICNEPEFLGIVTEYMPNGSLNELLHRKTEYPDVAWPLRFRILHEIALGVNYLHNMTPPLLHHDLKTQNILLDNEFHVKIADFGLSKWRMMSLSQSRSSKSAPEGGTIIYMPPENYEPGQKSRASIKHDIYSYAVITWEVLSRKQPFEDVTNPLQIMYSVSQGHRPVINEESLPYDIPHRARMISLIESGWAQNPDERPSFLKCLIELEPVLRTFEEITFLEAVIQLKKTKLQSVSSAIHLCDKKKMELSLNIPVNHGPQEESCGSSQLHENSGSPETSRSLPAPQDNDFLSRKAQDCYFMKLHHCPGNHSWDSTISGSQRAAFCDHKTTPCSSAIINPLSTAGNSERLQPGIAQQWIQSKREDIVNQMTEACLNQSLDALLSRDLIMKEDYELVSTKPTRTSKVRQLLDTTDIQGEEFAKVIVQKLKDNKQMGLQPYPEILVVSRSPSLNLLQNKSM
Chain of OSR1/OXSR1 (O95747 whole entry): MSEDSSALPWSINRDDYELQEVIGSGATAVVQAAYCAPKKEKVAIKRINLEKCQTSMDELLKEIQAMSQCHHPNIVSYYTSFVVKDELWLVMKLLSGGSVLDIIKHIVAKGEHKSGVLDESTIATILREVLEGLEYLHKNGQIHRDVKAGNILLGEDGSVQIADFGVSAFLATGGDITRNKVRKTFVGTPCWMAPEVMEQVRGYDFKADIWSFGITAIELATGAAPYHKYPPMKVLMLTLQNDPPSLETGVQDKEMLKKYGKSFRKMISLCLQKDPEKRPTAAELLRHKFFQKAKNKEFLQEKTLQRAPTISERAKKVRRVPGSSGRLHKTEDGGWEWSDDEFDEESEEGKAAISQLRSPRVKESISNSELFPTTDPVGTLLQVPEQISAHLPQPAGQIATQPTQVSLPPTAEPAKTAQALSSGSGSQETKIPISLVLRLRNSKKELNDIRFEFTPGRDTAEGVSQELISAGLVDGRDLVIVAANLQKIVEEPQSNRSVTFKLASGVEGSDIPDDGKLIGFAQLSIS

Row | SMILES | Papp_AB [1] | Papp_BA [1] | remaining activity at 1 µM [2] | remaining activity at 1 µM [3] | % enzyme activity [4] | remaining activity at 1 µM [5] | % enzyme activity [6] | remaining activity at 1 µM [7] | % enzyme activity [8]
1 | COc1cc(-c2cncc(-c3ccc(N4C[C@@H](C)N(C)[C@@H](C)C4)cc3)c2C)cc(F)c1C(N)=O [Compound 26c, 2-Fluoro-6-methoxy-4-(4-methyl-5-(4-((3R,5S)-3,4,5-trimethylpiperazin-1-yl)phenyl)pyridin-3-yl)benzamide] | 4.3 10^-6 cm/s | 14.5 10^-6 cm/s | 99% | 89% | 94.75% | 106% | 89.10% | 96.1% | 93.94%
2 | COc1cc(-c2cncc(-c3ccc(N4CCN(C)CC4)cc3)c2C)cc(F)c1C(N)=O [Compound 26a, 2-Fluoro-6-methoxy-4-(4-methyl-5-(4-(4-methylpiperazin-1-yl)phenyl)pyridin-3-yl)benzamide] | 5.5 10^-6 cm/s | 16.2 10^-6 cm/s | 102% | 82.2% | 93.34% | 108% | 66.31% | 94.4% | 98.66%
